Columns and labels:
Type in all cases: cell-based
[1] = target: EP2 subtype of the human PGE2 receptor (Homo sapiens, UniProt P43116); experiment: cAMP antagonism test on the human EP2 receptor (HTRF cAMP detection); conditions: hEP2 receptor, read-out: Antagonism hEP2 IC50
Summary of the method: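 Cells expressing human EP2 preincubated 20 min at RT with compound (0.8 nM–16.5 μM), then stimulated 60 min with PGE2 (3× solution 1.5 nM) in PBS-IBMX. After 20 min lysis, cAMP measured by competitive HTRF with cAMP-d2 and Eu cryptate anti-cAMP antibody (665/620 nm ratio).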

[2] = target: EP4 subtype of the human PGE2 receptor (Homo sapiens, UniProt P35408); experiment: cAMP antagonism test on the human EP4 receptor (HTRF cAMP detection); conditions: selectivity towards hEP4, IC50 measured by cAMP antagonism test
Summary of the method: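 Cells expressing human EP4 preincubated 20 min at RT with compound (0.8 nM–16.5 μM), then stimulated with PGE2 (0.3 nM in 3× solution, with IBMX) 60 min at RT. After lysis, cAMP measured by HTRF competition (665/620 nm ratio); antagonism seen as rise in FRET signal.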

[3] = target: T1, human PGD receptor (Homo sapiens, UniProt Q13258); experiment: cAMP antagonism test on the human prostaglandin D receptor (HTRF cAMP detection); conditions: selectivity towards hDP, IC50 measured by cAMP antagonism test
T1 sequence (Q13258 1-359): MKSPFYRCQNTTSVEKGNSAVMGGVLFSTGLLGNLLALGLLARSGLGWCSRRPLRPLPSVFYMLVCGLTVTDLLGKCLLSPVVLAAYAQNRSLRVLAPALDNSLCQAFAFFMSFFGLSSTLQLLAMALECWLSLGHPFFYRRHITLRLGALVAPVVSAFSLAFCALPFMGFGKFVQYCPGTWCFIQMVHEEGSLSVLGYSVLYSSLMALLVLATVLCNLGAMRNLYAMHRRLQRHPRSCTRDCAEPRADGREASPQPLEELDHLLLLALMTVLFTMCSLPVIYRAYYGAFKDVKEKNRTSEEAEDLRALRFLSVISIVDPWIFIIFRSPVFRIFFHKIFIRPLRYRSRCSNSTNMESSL
Summary of the method: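 Cells pre-mixed with cAMP-d2 were preincubated with compound (0.8 nM–16.5 μM) for 20 min at RT, then stimulated with 3× PGD2 solution (6 nM, in PBS-IBMX) for 30 min at RT. After lysis (20 min), HTRF read at 665/620 nm; antagonism seen as rise in FRET ratio.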

EP4 subtype of the human PGE2 receptor, sequence (P35408 whole entry): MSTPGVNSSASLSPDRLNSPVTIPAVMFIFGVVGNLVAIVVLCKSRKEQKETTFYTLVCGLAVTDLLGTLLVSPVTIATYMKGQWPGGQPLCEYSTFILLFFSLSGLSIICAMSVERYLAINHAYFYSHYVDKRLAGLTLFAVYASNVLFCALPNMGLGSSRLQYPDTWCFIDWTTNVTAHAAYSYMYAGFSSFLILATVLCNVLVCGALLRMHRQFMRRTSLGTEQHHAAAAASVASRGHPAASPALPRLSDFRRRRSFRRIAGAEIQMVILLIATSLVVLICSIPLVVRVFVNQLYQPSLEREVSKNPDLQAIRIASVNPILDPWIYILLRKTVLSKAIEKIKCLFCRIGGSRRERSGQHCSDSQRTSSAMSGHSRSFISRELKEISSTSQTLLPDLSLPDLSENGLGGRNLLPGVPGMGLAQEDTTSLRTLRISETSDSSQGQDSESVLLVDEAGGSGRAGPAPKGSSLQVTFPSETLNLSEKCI
EP2 subtype of the human PGE2 receptor, sequence (P43116 whole entry): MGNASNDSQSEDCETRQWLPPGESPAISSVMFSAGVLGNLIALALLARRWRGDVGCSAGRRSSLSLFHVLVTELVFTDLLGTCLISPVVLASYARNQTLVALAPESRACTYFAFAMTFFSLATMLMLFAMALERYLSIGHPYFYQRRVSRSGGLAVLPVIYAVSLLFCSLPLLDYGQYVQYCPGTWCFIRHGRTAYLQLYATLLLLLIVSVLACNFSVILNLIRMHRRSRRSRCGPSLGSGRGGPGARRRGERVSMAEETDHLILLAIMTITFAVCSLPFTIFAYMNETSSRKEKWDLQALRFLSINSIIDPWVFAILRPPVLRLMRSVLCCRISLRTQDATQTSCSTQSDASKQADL

Compound	IC50 [1] [nM]	Selectivity hEP2/hEP4 [2]	Selectivity hEP2/hDP [3]
Cc1c(C(=O)NCC2COCCO2)ccc2nn(CC3CN(C(=O)c4ccc(Cl)cc4)C3)cc12 (racemic) [Example 141, (+/−)-2-{[1-(4-chlorobenzoyl)azetidin-3-yl]methyl}-N-(1,4-dioxan-2-ylmethyl)-4-methyl-2H-indazol-5-carboxamide]	143	xxx (xxx > 100)	xxx (xxx > 100)
Cc1c(C(=O)NCC(F)(F)F)ccc2nn(CC3CCN(C(=O)c4nc5ccccc5o4)CC3)cc12 [Example 299, 2-{[1-(benzoxazol-2-ylcarbonyl)piperidin-4-yl]methyl}-4-methyl-N-(2,2,2-trifluoroethyl)-2H-indazol-5-carboxamide]	541	xx (xx: 10-100)	xx (xx: 10-100)
COCCNC(=O)c1ccc2nn(CC3CCN(C(=O)c4ccc(-n5cncn5)cc4)CC3)cc2c1C [Example 39, N-(2-methoxyethyl)-4-methyl-2-({1-[4-(1H-1,2,4-triazol-1-yl)benzoyl]piperidin-4-yl}methyl)-2H-indazol-5-carboxamide]	113	xxx (xxx > 100)	xxx (xxx > 100)
COCCNC(=O)c1ccc2nn(CC3CCN(C(=O)c4ccc(-c5ccc(F)cc5C)cc4)CC3)cc2c1C [Example 376, 2-({1-[(4′-fluoro-2′-methylbiphenyl-4-yl)carbonyl]piperidin-4-yl}methyl)-N-(2-methoxyethyl)-4-methyl-2H-indazol-5-carboxamide]	3.59	xxx (xxx > 100)	xxx (xxx > 100)
COCCNC(=O)c1ccc2nn(CC3CCN(C(=O)c4ccc(Oc5cccc(C(F)(F)F)n5)cc4)CC3)cc2c1C [Example 350, N-(2-methoxyethyl)-4-methyl-2-{[1-(4-{[6-(trifluoromethyl)pyridin-2-yl]oxy}-benzoyl)piperidin-4-yl]methyl}-2H-indazol-5-carboxamide]	8.41	xxx (xxx > 100)	xxx (xxx > 100)
COCCNC(=O)c1ccc2nn(CC3CCN(C(=O)c4ccc(Oc5ccc(C)cc5)cc4)CC3)cc2c1C [Example 15, N-(2-methoxyethyl)-4-methyl-2-({1-[4-(4-methylphenoxy)-benzoyl]piperidin-4-yl}methyl)-2H-indazol-5-carboxamide]	4.17	xxx (xxx > 100)	xxx (xxx > 100)
COCCNC(=O)c1ccc2nn(CC3CCN(C(=O)c4ccc(Cl)cc4)CC3)cc2c1OC(F)F [Example 225, 2-{[1-(4-chlorobenzoyl)piperidin-4-yl]methyl}-4-(difluoromethoxy)-N-(2-methoxyethyl)-2H-indazol-5-carboxamide]	14.3	xxx (xxx > 100)	xxx (xxx > 100)
COCCNC(=O)c1ccc2nn(CC3CCN(C(=O)c4ccc5cc(OC)ccc5c4)CC3)cc2c1C [Example 336, N-(2-methoxyethyl)-2-{[1-(6-methoxy-2-naphthoyl)piperidin-4-yl]methyl}-4-methyl-2H-indazol-5-carboxamide]	5.59	xxx (xxx > 100)	xxx (xxx > 100)
Cc1c(C(=O)NCC(F)(F)F)ccc2nn(CC3CCN(C(=O)c4ccc(-c5ccc(Cl)cn5)cc4)CC3)cc12 [Example 317, 2-({1-[4-(5-chloropyridin-2-yl)benzoyl]piperidin-4-yl}methyl)-4-methyl-N-(2,2,2-trifluoroethyl)-2H-indazol-5-carboxamide]	181	xx (xx: 10-100)	xx (xx: 10-100)
Cc1c(C(=O)NCCS(C)(=O)=O)ccc2nn(CC3CCN(C(=O)c4ccc(Oc5ccc(C(F)(F)F)nc5)cc4)CC3)cc12 [Example 397, N-(2-mesylethyl)-4-methyl-2-{[1-(4-{[6-(trifluoromethyl)pyridin-3-yl]oxy}-benzoyl)piperidin-4-yl]methyl}-2H-indazol-5-carboxamide]	12.5	xxx (xxx > 100)	xxx (xxx > 100)
COCCNC(=O)c1ccc2nn(CC3CCN(C(=O)c4ccc(C5CC5)cc4)CC3)cc2c1C [Example 20, 2-{[1-(4-cyclopropyl-benzoyl)piperidin-4-yl]methyl}-N-(2-methoxyethyl)-4-methyl-2H-indazol-5-carboxamide]	7.33	xxx (xxx > 100)	xxx (xxx > 100)
COCCNC(=O)c1ccc2nn(CC3CN(C(=O)c4cc5cc(OC)ccc5n4C)C3)cc2c1C [Example 172, N-(2-methoxyethyl)-2-({1-[(5-methoxy-1-methyl-1H-indol-2-yl)carbonyl]azetidin-3-yl}methyl)-4-methyl-2H-indazol-5-carboxamide]	3.16	xxx (xxx > 100)	xxx (xxx > 100)

Other lines, results leading:

IC50 [1] [nM]	Selectivity hEP2/hEP4 [2]	Selectivity hEP2/hDP [3]	Compound
17.7	xxx (xxx > 100)	xxx (xxx > 100)	Cc1c(C(=O)NCCN2CCC(F)(F)C2)ccc2nn(CC3CCN(C(=O)c4ccc(S(F)(F)(F)(F)F)cc4)CC3)cc12 [Example 68, N-[2-(3,3-difluoropyrrolidin-1-yl)ethyl]-4-methyl-2-({1-[4-(pentafluoro-λ^6-sulphanyl)benzoyl]piperidin-4-yl}methyl)-2H-indazol-5-carboxamide]
15.1	xxx (xxx > 100)	xxx (xxx > 100)	COCCNC(=O)c1cc2cn(CC3CN(C(=O)c4ccc(C5CC5)cc4)C3)nc2cc1C [Example 200, 2-{[1-(4-cyclopropylbenzoyl)azetidin-3-yl]methyl}-N-(2-methoxyethyl)-6-methyl-2H-indazol-5-carboxamide]
20.3	xxx (xxx > 100)	xxx (xxx > 100)	COCCNC(=O)c1ccc2nn(CC3CCN(C(=O)c4ccc(C)cc4)CC3)cc2c1C [Example 12, N-(2-methoxyethyl)-4-methyl-2-{[1-(4-methylbenzoyl)-piperidin-4-yl]-methyl)-2H-indazol-5-carboxamide]
98.2	xxx (xxx > 100)	xxx (xxx > 100)	Cc1c(C(=O)NCC(F)(F)F)ccc2nn(CC3CN(C(=O)c4ccc(-c5ccc(F)cc5)cc4)C3)cc12 [Example 161, 2-({1-[(4′-fluorobiphenyl-4-yl)carbonyl]azetidin-3-yl}methyl)-4-methyl-N-(2,2,2-trifluoroethyl)-2H-indazol-5-carboxamide]
24.5	xxx (xxx > 100)	xxx (xxx > 100)	Cc1c(C(=O)NCC(F)(F)F)ccc2nn(CC3CCN(C(=O)c4ccc(Oc5ccc(C(F)(F)F)cn5)cc4)CC3)cc12 [Example 301, 4-methyl-N-(2,2,2-trifluoroethyl)-2-{[1-(4-{[5-(trifluoromethyl)pyridin-2-yl]-oxy}benzoyl)piperidin-4-yl]methyl}-2H-indazol-5-carboxamide]
17.3	xxx (xxx > 100)	xxx (xxx > 100)	COCCNC(=O)c1cc2cn(CC3CN(C(=O)c4ccc(SC(F)(F)F)cc4)C3)nc2cc1C [Example 180, N-(2-methoxyethyl)-6-methyl-2-[(1-{4-[(trifluoromethyl)sulphanyl]benzoyl}azetidin-3-yl)methyl]-2H-indazol-5-carboxamide]
35.2	xxx (xxx > 100)	xxx (xxx > 100)	COCCNC(=O)c1cc2cn(CC3CN(C(=O)c4ccc(OC(F)(F)F)cc4)C3)nc2cc1C [Example 181, N-(2-methoxyethyl)-6-methyl-2-({1-[4-(trifluoromethoxy)benzoyl]azetidin-3-yl}methyl)-2H-indazol-5-carboxamide]

From patent US9062041B2 (Bayer Intellectual Property GmbH, priority 2011, dated 2015)
